Assay results reported in ChEMBL document CHEMBL1132223, “Quantitative structure-activity relationship of human neutrophil collagenase (MMP-8) inhibitors using comparative molecular field analysis and X-ray structure analysis” (J Med Chem, 1999).

What follows are molecules tested against Neutrophil collagenase (Homo sapiens, UniProt P22894) (assay: Inhibition of human neutrophil collagenase [Matrix Metalloprotease-8, MMP-8]).
Neutrophil collagenase, sequence (P22894 whole entry): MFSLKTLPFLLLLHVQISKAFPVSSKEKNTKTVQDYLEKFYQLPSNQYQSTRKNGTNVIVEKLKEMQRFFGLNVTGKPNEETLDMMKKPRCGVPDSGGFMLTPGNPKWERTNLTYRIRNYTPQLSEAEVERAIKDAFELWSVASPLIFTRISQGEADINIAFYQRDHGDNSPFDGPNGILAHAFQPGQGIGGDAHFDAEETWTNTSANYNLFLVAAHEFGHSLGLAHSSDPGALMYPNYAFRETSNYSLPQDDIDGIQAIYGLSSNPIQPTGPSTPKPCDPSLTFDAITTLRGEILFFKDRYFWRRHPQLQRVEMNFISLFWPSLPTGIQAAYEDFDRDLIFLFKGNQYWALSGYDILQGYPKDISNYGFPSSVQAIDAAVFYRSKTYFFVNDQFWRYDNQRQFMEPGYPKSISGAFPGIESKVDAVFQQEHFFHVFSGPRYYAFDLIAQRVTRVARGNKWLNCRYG

Row | IC50 [nM] | SMILES
1 | 10 | COc1ccc(S(=O)(=O)N2Cc3cc(NC(=O)[C@H](CC(=O)OC(C)(C)C)NC(=O)OCc4ccccc4)ccc3C[C@H]2C(=O)NO)cc1
2 | 40 | CNC(=O)c1ccc(Oc2ccc(S(=O)(=O)N3Cc4ccccc4C[C@@H]3C(=O)C(=O)O)cc2)cc1
3 | 3000 | O=C(NO)[C@H]1Cc2ccccc2CN1S(=O)(=O)Cc1ccccc1
4 | 1000 | COc1ccc(S(=O)(=O)N2Cc3ccccc3C[C@H]2C(=O)NO)cc1
5 | 600 | O=C(O)C(=O)[C@H]1Cc2ccccc2CN1S(=O)(=O)c1ccc(-c2ccon2)s1
6 | 10000 | COc1ccc(S(=O)(=O)N2Cc3ncn(C)c3C[C@@H]2C(=O)O)cc1
7 | 50 | O=C(NO)[C@H]1Cc2ccccc2CN1S(=O)(=O)c1ccc(C(F)(F)F)cc1
8 | 2 | O=C(NO)[C@H]1Cc2ccccc2CN1S(=O)(=O)c1ccc(-c2ccccc2)cc1
9 | 1 | COc1ccc(S(=O)(=O)N2Cc3cc(O)ccc3C[C@@H]2C(=O)NO)cc1
10 | 5 | O=C(O)C(=O)[C@H]1Cc2ccccc2CN1S(=O)(=O)c1ccc(-c2ccc(Cl)cc2)cc1
11 | 10 | CC(C)(C)OC(=O)Nc1ccc2c(c1)CN(S(=O)(=O)c1ccc(-c3ccc(F)cc3)cc1)[C@@H](C(=O)NO)C2
12 | 8 | O=C(NO)[C@H]1Cc2ccccc2CN1S(=O)(=O)c1ccc(-c2ccon2)s1
13 | 1000 | CSc1nccc(-c2ccc(S(=O)(=O)N3Cc4ccccc4C[C@@H]3C(=O)C(=O)O)s2)n1
14 | 30 | CCOC(=O)Nc1ccc(S(=O)(=O)N2Cc3ccccc3C[C@@H]2C(=O)NO)cc1
15 | 80 | O=C(O)C(=O)[C@H]1Cc2ccccc2CN1S(=O)(=O)c1ccc(-c2nc3ccccc3o2)cc1
16 | 3 | O=C(NO)[C@H]1Cc2ccccc2CN1S(=O)(=O)c1ccc(-c2ccc(Cl)cc2)cc1
17 | 30 | CN(C)c1ccc(Oc2ccc(S(=O)(=O)N3Cc4ccccc4C[C@@H]3C(=O)C(=O)O)cc2)cc1
18 | 1 | CN(C)c1ccc(-c2ccc(S(=O)(=O)N3Cc4ccccc4C[C@@H]3C(=O)C(=O)O)cc2)cc1
19 | 800 | O=C(NCc1csc(S(=O)(=O)N2Cc3ccccc3C[C@@H]2C(=O)NO)c1)c1ccccc1
20 | 40 | O=C(O)C(=O)[C@H]1Cc2ccc([N+](=O)[O-])cc2CN1S(=O)(=O)c1ccc(-c2ccc(F)cc2)cc1
21 | 200 | COc1ccc(OC(=O)Nc2cccc(S(=O)(=O)N3Cc4ccccc4C[C@@H]3C(=O)NO)c2)cc1
22 | 30 | O=C(NO)[C@H]1Cc2ccccc2CN1S(=O)(=O)CCc1ccncc1
23 | 20 | O=C(O)C(=O)[C@H]1Cc2ccccc2CN1S(=O)(=O)CCc1ccc(-c2ccccc2)cc1
24 | 10 | N#Cc1ccc(Oc2ccc(S(=O)(=O)N3Cc4ccccc4C[C@@H]3C(=O)C(=O)O)cc2)cc1
25 | 2 | COc1ccc(S(=O)(=O)N2Cc3cc(NC(=O)[C@H](C)NC(=O)OC(C)(C)C)ccc3C[C@H]2C(=O)NO)cc1
26 | 30 | CC(C)(C)OC(=O)Nc1ccc2c(c1)C[C@H](C(=O)C(=O)O)N(S(=O)(=O)c1ccc(-c3ccc(F)cc3)cc1)C2
27 | 8 | COc1ccc(S(=O)(=O)N2Cc3cc([N+](=O)[O-])ccc3C[C@@H]2C(=O)NO)cc1

Row | IC50 [nM] | SMILES
28 | 100 | CC(=O)Nc1ccc(S(=O)(=O)N2Cc3ccccc3C[C@@H]2C(=O)NO)cc1
29 | 60 | O=C(O)C(=O)[C@H]1Cc2ccccc2CN1S(=O)(=O)c1ccc(/C=C/c2ccccc2)cc1
30 | 90 | O=C(O)C(=O)[C@H]1Cc2ccccc2CN1S(=O)(=O)c1ccc(-n2nccn2)cc1
31 | 20 | O=C(O)C(=O)[C@H]1Cc2cc([N+](=O)[O-])ccc2CN1S(=O)(=O)c1ccc(-c2ccc(Cl)cc2)cc1
32 | 70 | O=C(NO)[C@H]1Cc2ccccc2CN1S(=O)(=O)c1ccc2ccccc2c1
33 | 20 | CSc1nccc(-c2ccc(S(=O)(=O)N3Cc4ccccc4C[C@@H]3C(=O)NO)s2)n1
34 | 500 | O=C(O)C(=O)[C@H]1Cc2ccccc2CN1S(=O)(=O)c1ccc2oc3ccccc3c2c1
35 | 2 | Nc1ccc2c(c1)CN(S(=O)(=O)c1ccc(-c3ccc(F)cc3)cc1)[C@@H](C(=O)NO)C2
36 | 2 | O=C(NO)[C@H]1Cc2ccccc2CN1S(=O)(=O)Cc1ccc(-c2ccccn2)s1
37 | 40 | COc1ccc(S(=O)(=O)N2Cc3cc(NC(=O)CCC(=O)O)ccc3C[C@@H]2C(=O)NO)cc1
38 | 2000 | COc1ccc(S(=O)(=O)N2Cc3cc(NC(=O)[C@H](C)N)ccc3C[C@H]2C(=O)C(=O)O)cc1
39 | 200 | O=C(Nc1cccc(S(=O)(=O)N2Cc3ccccc3C[C@@H]2C(=O)NO)c1)c1ccccc1O
40 | 80 | COC(=O)c1csc(S(=O)(=O)N2Cc3ccccc3C[C@@H]2C(=O)NO)c1OC
41 | 2 | CCCCOc1ccc(S(=O)(=O)N2Cc3ccccc3C[C@@H]2C(=O)NO)cc1
42 | 40 | O=C(NO)[C@H]1Cc2ccccc2CN1S(=O)(=O)c1ccc2[nH]c(-c3ccccc3)nc2c1
43 | 3000 | CCCCCCCCCCCCCCCCS(=O)(=O)N1Cc2ccccc2C[C@@H]1C(=O)NO
44 | 3 | COc1ccc(S(=O)(=O)N2Cc3ncn(C)c3C[C@@H]2C(=O)NO)cc1
45 | 7 | Nc1ccc2c(c1)CN(S(=O)(=O)c1ccc(-c3ccc(Cl)cc3)cc1)[C@@H](C(=O)C(=O)O)C2
46 | 2 | O=C(NO)[C@H]1Cc2ccccc2CN1S(=O)(=O)c1ccc(OCc2ccc(F)cc2)cc1
47 | 2 | CN(C)c1ccc(-c2ccc(S(=O)(=O)N3Cc4ccccc4C[C@@H]3C(=O)NO)cc2)cc1
48 | 500 | O=C(NO)[C@H]1Cc2ccccc2CN1S(=O)(=O)c1cc(Br)c(Br)s1
49 | 2000 | O=C(NO)[C@H]1Cc2ccccc2CN1S(=O)(=O)c1cc(S(=O)(=O)c2ccccc2)cs1
50 | 100 | O=C(NO)[C@H]1Cc2ccccc2CN1S(=O)(=O)c1ccc(N2CCOCC2)cc1
51 | 3 | COc1ccc(S(=O)(=O)N2Cc3cc(NC(=O)OC(C)(C)C)ccc3C[C@@H]2C(=O)NO)cc1
52 | 4 | COc1ccc(S(=O)(=O)N2Cc3ccccc3C[C@@H]2C(=O)NO)cc1
53 | 2000 | COc1ccc(S(=O)(=O)N2Cc3cc(N)ccc3C[C@@H]2C(=O)C(=O)O)cc1
54 | 3000 | O=C(O)C(=O)C1Cc2ccccc2CN1S(=O)(=O)c1ccc(-c2ccc(Cl)cc2)cc1 (single isomer, unassigned)
